Source: PubChem BioAssay AID330 (DTP/NCI, 2004)
Toxic doses and inconclusive results are not listed.

System: P388 leukemia ip, CD2F1 mice, survival T/C
Assay: NCI In Vivo Anticancer Drug Screen. Data for tumor model P388 Leukemia (intraperitoneal) in CD2F1 (CDF1) mice
Settings: endpoint: median survival time, higher = longer survival
Outline: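 Mice carrying the transplanted tumor received test compound or vehicle. Survival was recorded in each group, and the value is the treated-group measurement divided by that of the vehicle-treated control group.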

[1] = dose: 50.0 mg/kg/injection, schedule: Q01DX005 (ip), vehicle: saline with Tween-80
[2] = dose: 100.0 mg/kg/injection, schedule: Q01DX005 (ip), vehicle: saline with Tween-80
[3] = dose: 200.0 mg/kg/injection, schedule: Q01DX005 (ip), vehicle: saline with Tween-80
[4] = dose: 50.0 mg/kg/injection, schedule: Q01DX005 (ip), vehicle: Klucel (hydroxypropylcellulose) (HPC)
[5] = dose: 100.0 mg/kg/injection, schedule: Q01DX005 (ip), vehicle: Klucel (hydroxypropylcellulose) (HPC)
[6] = dose: 200.0 mg/kg/injection, schedule: Q01DX005 (ip), vehicle: Klucel (hydroxypropylcellulose) (HPC)
[7] = dose: 60.0 mg/kg/injection, schedule: Q01DX005 (ip), vehicle: saline with Tween-80
[8] = dose: 120.0 mg/kg/injection, schedule: Q01DX005 (ip), vehicle: saline with Tween-80
[9] = dose: 240.0 mg/kg/injection, schedule: Q01DX005 (ip), vehicle: saline with Tween-80
[10] = dose: 100.0 mg/kg/injection, schedule: Q04DX002 (ip), vehicle: Klucel (hydroxypropylcellulose) (HPC)
[11] = dose: 200.0 mg/kg/injection, schedule: Q04DX002 (ip), vehicle: Klucel (hydroxypropylcellulose) (HPC)
[12] = dose: 50.0 mg/kg/injection, schedule: Q01DX005 (ip), vehicle: saline
[13] = dose: 100.0 mg/kg/injection, schedule: Q01DX005 (ip), vehicle: saline
[14] = dose: 200.0 mg/kg/injection, schedule: Q01DX005 (ip), vehicle: saline
[15] = dose: 50.0 mg/kg/injection, schedule: Q01DX009 (ip), vehicle: saline with Tween-80
[16] = dose: 100.0 mg/kg/injection, schedule: Q01DX009 (ip), vehicle: saline with Tween-80
[17] = dose: 200.0 mg/kg/injection, schedule: Q01DX009 (ip), vehicle: saline with Tween-80
[18] = dose: 25.0 mg/kg/injection, schedule: Q01DX009 (ip), vehicle: saline with Tween-80

CCC(CC)(C(=O)Nc1ccc2[nH]c3ccccc3c(=O)c2c1)C(=O)Nc1ccc2[nH]c3ccccc3c(=O)c2c1
T/C [1]: 97 % of control | T/C [2]: 105 % of control | T/C [3]: 99 % of control

CCOP1(=S)NNP(=S)(OCC)NN1 (centres undefined)
T/C [4]: 96 % of control | T/C [5]: 93 % of control | T/C [6]: 104 % of control

CC1(C)COC2(C)ON12 (centres undefined)
T/C [1]: 106 % of control | T/C [2]: 117 % of control | T/C [3]: 113 % of control

COC(=O)C1=C(N)SS/C1=C/[N+](=O)[O-]
T/C [4]: 106 % of control | T/C [5]: 103 % of control | T/C [6]: 101 % of control

O=C(NC(CC(NC(=O)OCc1ccccc1)NC(=O)OCc1ccccc1)NC(=O)OCc1ccccc1)OCc1ccccc1
T/C [7]: 89 % of control | T/C [8]: 91 % of control | T/C [9]: 103 % of control

CC(=O)OC(=O)C(NC(=O)C(N)CC(C)C)C(C)C (centres undefined)
T/C (dose: 50.0 mg/kg/injection, schedule: Q01DX009 (ip), vehicle: saline): 103 % of control | T/C (dose: 100.0 mg/kg/injection, schedule: Q01DX009 (ip), vehicle: saline): 94 % of control | T/C (dose: 200.0 mg/kg/injection, schedule: Q01DX009 (ip), vehicle: saline): 100 % of control

O=C(S)CC(O)(CCl)c1ccc(-c2ccccc2)cc1 (centres undefined)
T/C [10]: 113 % of control | T/C [11]: 101 % of control

CC(C)OC(=O)Cn1c(=O)c2nnnn2c2ccccc21
T/C [10]: 93 % of control | T/C [11]: 98 % of control | T/C (dose: 400.0 mg/kg/injection, schedule: Q04DX002 (ip), vehicle: Klucel (hydroxypropylcellulose) (HPC)): 93 % of control

COC(=O)c1nnc(C(=O)OC)c2c1[nH]c1ccccc12
T/C [7]: 96 % of control | T/C [8]: 103 % of control | T/C [9]: 94 % of control

CO[C@H]1C[C@H]2CC[C@@]1(C)C2(C)C
T/C (dose: 60.0 mg/kg/injection, schedule: Q01DX005 (ip), vehicle: saline): 104 % of control | T/C (dose: 120.0 mg/kg/injection, schedule: Q01DX005 (ip), vehicle: saline): 104 % of control | T/C (dose: 240.0 mg/kg/injection, schedule: Q01DX005 (ip), vehicle: saline): 100 % of control

O=C(NC(Cc1ccccc1F)C(=O)O)c1ccccc1 (centres undefined)
T/C (dose: 25.0 mg/kg/injection, schedule: Q01DX009 (ip), vehicle: other): 98 % of control | T/C (dose: 50.0 mg/kg/injection, schedule: Q01DX009 (ip), vehicle: other): 105 % of control | T/C (dose: 100.0 mg/kg/injection, schedule: Q01DX009 (ip), vehicle: other): 98 % of control

CCC(C)(F)C(N)C(=O)O (centres undefined)
T/C [12]: 100 % of control | T/C [13]: 97 % of control | T/C [14]: 100 % of control

COC(=O)c1[nH]c(=O)c2ccc([N+](=O)[O-])cc2c1O
T/C [15]: 86 % of control | T/C [16]: 88 % of control | T/C [17]: 86 % of control

O=Cc1ccc2nc(C(Cl)(Cl)Cl)ccc2c1
T/C [15]: 100 % of control | T/C [16]: 105 % of control | T/C [17]: 100 % of control

NC(CCl)=NCC12CC3CC(CC(C3)C1)C2
T/C (dose: 12.5 mg/kg/injection, schedule: Q01DX009 (ip), vehicle: Klucel (hydroxypropylcellulose) (HPC)): 90 % of control

COc1cccc(-n2c(=S)[nH]c3ccccc3c2=O)c1
T/C [1]: 93 % of control | T/C [2]: 87 % of control | T/C [3]: 89 % of control

Nc1cc(Cl)c(O)c(Cl)c1
T/C (dose: 25.0 mg/kg/injection, schedule: Q01DX001 (ip), vehicle: saline with Tween-80): 100 % of control | T/C (dose: 50.0 mg/kg/injection, schedule: Q01DX001 (ip), vehicle: saline with Tween-80): 95 % of control | T/C (dose: 100.0 mg/kg/injection, schedule: Q01DX001 (ip), vehicle: saline with Tween-80): 90 % of control

C=C1C(=O)C23C(OC(=O)CCC)C1CCC2C12COC3(O)C(O)C1C(C)(C)CCC2O (centres undefined)
T/C (dose: 3.75 mg/kg/injection, schedule: Q01DX009 (ip), vehicle: saline with Tween-80): 102 % of control | T/C (dose: 7.5 mg/kg/injection, schedule: Q01DX009 (ip), vehicle: saline with Tween-80): 101 % of control | T/C (dose: 15.0 mg/kg/injection, schedule: Q01DX009 (ip), vehicle: saline with Tween-80): 107 % of control | T/C (dose: 30.0 mg/kg/injection, schedule: Q01DX009 (ip), vehicle: saline with Tween-80): 111 % of control

CCC(=O)NC1=CCC(C(C)(C)C)CC1 (centres undefined)
T/C [1]: 102 % of control | T/C [2]: 102 % of control

CCN(CC)Cc1cc(N=Nc2c(O)ccc3c(N=Nc4ccc(O)c(CN(CC)CC)c4)c(O)ccc23)ccc1O
T/C [4]: 108 % of control | T/C [5]: 109 % of control

Cc1nonc1CCO
T/C [12]: 105 % of control | T/C [13]: 102 % of control | T/C [14]: 103 % of control

N#CN=CN1CCC(Cc2ccccc2)CC1
T/C [15]: 101 % of control | T/C [16]: 101 % of control

Cc1n[nH]c(=O)c2cc3oc4ccccc4c3n12
T/C [7]: 100 % of control | T/C [8]: 94 % of control | T/C [9]: 92 % of control

O=c1cc(Nc2ccc(Br)cc2)[nH]c(=O)[nH]1
T/C [7]: 94 % of control | T/C [8]: 100 % of control | T/C [9]: 102 % of control

O=[N+]([O-])c1ccc(-c2nc(/C=N/N3CCS(=O)(=O)CC3)cs2)o1
T/C [18]: 99 % of control | T/C [15]: 99 % of control | T/C [16]: 100 % of control

Nc1ccc2c(c1)C1(CCC2)NC(=O)NC1=O (centres undefined)
T/C [15]: 96 % of control | T/C [16]: 95 % of control | T/C [17]: 105 % of control

Oc1cc2c(cc1C/C=C/c1ccccc1)OCO2
T/C (dose: 2.5 mg/kg/injection, schedule: Q01DX009 (ip), vehicle: saline with Tween-80): 101 % of control | T/C (dose: 5.0 mg/kg/injection, schedule: Q01DX009 (ip), vehicle: saline with Tween-80): 103 % of control | T/C (dose: 10.0 mg/kg/injection, schedule: Q01DX009 (ip), vehicle: saline with Tween-80): 101 % of control

CCOC(CN=Cc1cc(C)c2sc3ccccc3c2c1C)OCC
T/C [18]: 110 % of control | T/C [15]: 103 % of control | T/C [16]: 108 % of control | T/C [17]: 111 % of control

CC1=C(CCC(=O)O)c2cc3nc(cc4[nH]c(cc4C)cc4[nH]c(cc1n2)cc4C)C(C)(C)C3CCC(=O)O (centres undefined)
T/C (dose: 3.0 mg/kg/injection, schedule: Q01DX009 (ip), vehicle: Klucel (hydroxypropylcellulose) (HPC)): 97 % of control | T/C (dose: 6.0 mg/kg/injection, schedule: Q01DX009 (ip), vehicle: Klucel (hydroxypropylcellulose) (HPC)): 92 % of control | T/C (dose: 12.0 mg/kg/injection, schedule: Q01DX009 (ip), vehicle: Klucel (hydroxypropylcellulose) (HPC)): 90 % of control | T/C (dose: 24.0 mg/kg/injection, schedule: Q01DX009 (ip), vehicle: Klucel (hydroxypropylcellulose) (HPC)): 87 % of control

Cn1c(-c2ccc3c(c2)OCO3)cc(=O)c2ccccc21
T/C (dose: 30.0 mg/kg/injection, schedule: Q01DX005 (ip), vehicle: saline with Tween-80): 97 % of control | T/C [7]: 92 % of control | T/C [8]: 92 % of control

COC1=C(OC)C(=O)C(SCCCCCCC2CCCCC2)=CC1=O
T/C (dose: 16.0 mg/kg/injection, schedule: Q01DX009 (ip), vehicle: Klucel (hydroxypropylcellulose) (HPC)): 96 % of control | T/C (dose: 32.0 mg/kg/injection, schedule: Q01DX009 (ip), vehicle: Klucel (hydroxypropylcellulose) (HPC)): 92 % of control

CC(=O)OCC1OC(OC(C)=O)C(NC(=S)NCC(=O)c2ccc(C)cc2)C(OC(C)=O)C1OC(C)=O (centres undefined)
T/C [1]: 99 % of control | T/C [2]: 100 % of control | T/C [3]: 101 % of control

Cc1ccc(NC(=O)Nc2ccccc2C(N)=O)cc1
T/C (dose: 100.0 mg/kg/injection, schedule: Q04DX003 (ip), vehicle: saline with Tween-80): 95 % of control | T/C (dose: 200.0 mg/kg/injection, schedule: Q04DX003 (ip), vehicle: saline with Tween-80): 95 % of control | T/C (dose: 400.0 mg/kg/injection, schedule: Q04DX003 (ip), vehicle: saline with Tween-80): 90 % of control

COc1ccc2c(c1OC)CN1CCc3cc4c(cc3C1C2C)OCO4 (centres undefined)
T/C (dose: 50.0 mg/kg/injection, schedule: Q04DX003 (ip), vehicle: distilled water + Tween-80): 91 % of control | T/C (dose: 100.0 mg/kg/injection, schedule: Q04DX003 (ip), vehicle: distilled water + Tween-80): 96 % of control | T/C (dose: 200.0 mg/kg/injection, schedule: Q04DX003 (ip), vehicle: distilled water + Tween-80): 91 % of control | T/C (dose: 400.0 mg/kg/injection, schedule: Q04DX003 (ip), vehicle: distilled water + Tween-80): 89 % of control
